The values below come from patent publication US20180235931A1, “USE OF NEUROKININ-1 ANTAGONISTS AS ANTITUSSIVES” (Menlo Therapeutics Inc., priority 2017, published 2018).

The conditions of series [1]: cited from earlier work.
The nature of series [2]: In vitro skin permeation, Franz diffusion cell. The following applies: topical formulations B and C on human skin, 37 C, LC-MS/MS. In kind it is in vitro ADME. The procedure:
In vitro skin permeation of serlopitant in topical formulations A-D was evaluated using a Franz diffusion cell. FIG. 1 illustrates a Franz diffusion cell. A Franz diffusion cell having a circular permeation area of 4.15 cm^2 and a receptor chamber volume of 19 mL was set up with a thermo-regulated outer water jacket to maintain the temperature at 37° C. The receptor chamber was filled with 19 mL 1×PBS (pH 7.5) containing 10% ethanol and 1% Tween® 80.
Human skin was pre-treated to remove all subcutaneous fat and was cleaned with 70% ethanol before use. The skin was visually inspected to ensure that it was free of any surface irregularity or small holes and was equally divided into four pieces. The skin was then mounted onto the receptor chamber with the stratum corneum side facing up. About 100 mg of topical formulation A, B, C or D was applied to the skin (actual weight: A, 103.8 mg; B, 101.3 mg; C, 103.2 mg; and D, 103.8 mg), which was then covered with parafilm to avoid evaporation. […]
All samples were processed by solid-phase extraction (SPE) before LC-MS/MS analysis. […] Serlopitant concentrations in samples resulting from formulations A-D were determined by comparison to the standard. Serlopitant was not detected in samples resulting from topical formulations A and D, as expected. […] After an initial lag, serlopitant was detected by LC-MS/MS in the receptor chamber at 6 hours.

Series [3] in a line: Solubility test of serlopitant in Franz cell receptor solution. In kind it is physicochemical.

In the case of `C[C@@H](O[C@H]1CC[C@@H]2CN(C3=CC(=O)CC3)C[C@H]2[C@@H]1c1ccc(F)cc1)c1cc(C(F)(F)F)cc(C(F)(F)F)c1` [Form I], the hygroscopicity result in series [1] (all tested relative humidity conditions) is “non-hygroscopic”. Besides, in series [1] (below 70 C, Form I vs Form II), the thermodynamic stability result is “thermodynamically more stable”.

Consider `CC(O[C@H]1CC[C@@H]2CN(C3=CC(=O)CC3)C[C@H]2[C@@H]1c1ccc(F)cc1)c1cc(C(F)(F)F)cc(C(F)(F)F)c1` (stereo partly drawn) [serlopitant], for which the “time at which serlopitant was detected in the receptor chamber after initial lag” value in series [2] was found to be 6 h. Also, the “solubility in receptor solution” value in series [3] (0.5, 5 and 50 ug/mL in 1xPBS (pH 7.5) containing 10% ethanol and 1% Tween 80, 1 hour at 37 C) was “remained soluble”. Moreover, in series [3] (receptor solution without Tween 80), the “solubility if Tween 80 was not used” value is reported as “decreased significantly”. Further, the “solubility if ethanol was not used” value in series [3] (receptor solution without ethanol) is given as “decreased slightly”.
